Experimental data taken from PMC5651913, “Photosensing and Thermosensing by Phytochrome B Require Both Proximal and Distal Allosteric Features within the Dimeric Photoreceptor” (Scientific Reports, 2017).

Legend:
[1] = molecular target: T1, PhyB 1–450 fragment (Arabidopsis thaliana, UniProt P14713); assay: assembly in E. coli, zinc-induced fluorescence after SDS-PAGE, UV-Vis absorption; assay type: binding; conditions: covalent; GAF domain cysteine; 25 °C, pH 7.9
T1 construct: NTE-PAS-GAF, residues 1-450; N-terminal 6His-TEV tag cut off; E. coli BL21(DE3)
T1 sequence (P14713 1-450): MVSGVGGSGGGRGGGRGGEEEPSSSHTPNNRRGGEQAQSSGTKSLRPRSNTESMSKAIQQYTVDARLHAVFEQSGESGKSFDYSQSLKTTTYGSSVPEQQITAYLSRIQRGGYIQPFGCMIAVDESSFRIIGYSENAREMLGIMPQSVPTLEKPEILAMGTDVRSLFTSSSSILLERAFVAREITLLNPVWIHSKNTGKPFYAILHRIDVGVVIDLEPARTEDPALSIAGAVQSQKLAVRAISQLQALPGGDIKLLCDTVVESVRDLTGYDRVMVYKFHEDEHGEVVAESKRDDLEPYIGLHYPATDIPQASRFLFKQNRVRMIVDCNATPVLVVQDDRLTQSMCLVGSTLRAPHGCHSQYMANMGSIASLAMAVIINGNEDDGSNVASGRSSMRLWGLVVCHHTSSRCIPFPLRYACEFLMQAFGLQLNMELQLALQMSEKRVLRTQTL

[2] = molecular target: T2, full-length (FL) PhyB (Arabidopsis thaliana, UniProt P14713); assay: as above; assay type: binding; conditions: covalent; GAF domain cysteine; 25 °C, pH 7.9
T2 construct: full length, 1172 residues; N-terminal 6His-TEV tag cut off; intron-less gene; E. coli BL21(DE3); homodimer, 320 kDa by SEC
T2 sequence (P14713 1-1172): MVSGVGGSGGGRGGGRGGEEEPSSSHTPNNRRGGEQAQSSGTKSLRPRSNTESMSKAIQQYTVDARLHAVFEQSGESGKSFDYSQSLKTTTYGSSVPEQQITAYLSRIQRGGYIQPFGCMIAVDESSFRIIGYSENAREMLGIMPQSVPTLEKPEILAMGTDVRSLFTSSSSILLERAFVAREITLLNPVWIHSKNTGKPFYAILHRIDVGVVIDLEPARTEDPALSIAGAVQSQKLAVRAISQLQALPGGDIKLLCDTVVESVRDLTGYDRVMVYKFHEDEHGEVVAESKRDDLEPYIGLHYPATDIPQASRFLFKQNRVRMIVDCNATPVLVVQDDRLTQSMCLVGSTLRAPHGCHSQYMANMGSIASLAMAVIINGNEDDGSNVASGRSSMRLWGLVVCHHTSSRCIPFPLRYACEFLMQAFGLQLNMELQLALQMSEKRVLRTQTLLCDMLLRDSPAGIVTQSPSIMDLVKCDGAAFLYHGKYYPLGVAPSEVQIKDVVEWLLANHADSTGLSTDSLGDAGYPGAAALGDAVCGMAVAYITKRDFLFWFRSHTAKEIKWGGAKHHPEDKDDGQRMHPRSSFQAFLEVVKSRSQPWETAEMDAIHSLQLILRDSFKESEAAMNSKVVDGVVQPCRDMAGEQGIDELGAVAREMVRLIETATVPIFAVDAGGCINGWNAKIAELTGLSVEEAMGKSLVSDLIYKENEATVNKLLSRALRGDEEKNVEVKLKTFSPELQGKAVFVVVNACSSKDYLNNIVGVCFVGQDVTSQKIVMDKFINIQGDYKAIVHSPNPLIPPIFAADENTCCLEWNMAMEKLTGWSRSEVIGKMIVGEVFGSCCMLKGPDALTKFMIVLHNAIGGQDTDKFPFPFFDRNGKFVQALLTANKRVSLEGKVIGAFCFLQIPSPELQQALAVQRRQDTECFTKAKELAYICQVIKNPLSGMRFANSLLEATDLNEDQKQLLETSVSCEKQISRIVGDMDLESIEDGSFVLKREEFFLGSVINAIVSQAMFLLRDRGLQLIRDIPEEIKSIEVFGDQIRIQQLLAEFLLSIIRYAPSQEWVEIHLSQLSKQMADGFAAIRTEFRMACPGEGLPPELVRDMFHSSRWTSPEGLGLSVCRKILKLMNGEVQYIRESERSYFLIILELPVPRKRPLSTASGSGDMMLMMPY

[3] = molecular target: T3, PhyB 1–624 fragment (PSM) (Arabidopsis thaliana, UniProt P14713); assay: as above; assay type: binding; conditions: covalent; GAF domain cysteine; 25 °C, pH 7.9
T3 construct: photosensory module (NTE-PAS-GAF-PHY), residues 1-624; N-terminal 6His-TEV tag cut off; E. coli BL21(DE3)
T3 sequence (P14713 1-624): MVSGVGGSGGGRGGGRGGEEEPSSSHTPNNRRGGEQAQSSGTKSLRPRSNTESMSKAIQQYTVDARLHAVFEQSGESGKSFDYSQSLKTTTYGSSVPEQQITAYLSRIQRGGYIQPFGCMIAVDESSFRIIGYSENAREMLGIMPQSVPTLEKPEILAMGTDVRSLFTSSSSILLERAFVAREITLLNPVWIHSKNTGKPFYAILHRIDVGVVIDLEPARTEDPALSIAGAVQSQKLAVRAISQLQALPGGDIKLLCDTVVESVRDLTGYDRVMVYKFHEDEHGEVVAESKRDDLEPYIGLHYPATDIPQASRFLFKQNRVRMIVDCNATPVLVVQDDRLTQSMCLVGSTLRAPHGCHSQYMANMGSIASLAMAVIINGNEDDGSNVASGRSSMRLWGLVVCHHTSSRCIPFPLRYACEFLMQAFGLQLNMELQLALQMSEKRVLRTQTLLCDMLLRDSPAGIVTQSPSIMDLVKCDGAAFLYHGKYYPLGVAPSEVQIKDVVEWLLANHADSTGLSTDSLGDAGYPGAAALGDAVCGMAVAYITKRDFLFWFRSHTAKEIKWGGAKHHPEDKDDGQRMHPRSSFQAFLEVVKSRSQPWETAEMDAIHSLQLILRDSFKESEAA

[4] = molecular target: T4, PhyB 1–908 fragment (Arabidopsis thaliana, UniProt P14713); assay: as above; assay type: binding; conditions: covalent; GAF domain cysteine; 25 °C, pH 7.9
T4 construct: residues 1-908 (HKRD removed); N-terminal 6His-TEV tag cut off; E. coli BL21(DE3)
T4 sequence (P14713 1-908): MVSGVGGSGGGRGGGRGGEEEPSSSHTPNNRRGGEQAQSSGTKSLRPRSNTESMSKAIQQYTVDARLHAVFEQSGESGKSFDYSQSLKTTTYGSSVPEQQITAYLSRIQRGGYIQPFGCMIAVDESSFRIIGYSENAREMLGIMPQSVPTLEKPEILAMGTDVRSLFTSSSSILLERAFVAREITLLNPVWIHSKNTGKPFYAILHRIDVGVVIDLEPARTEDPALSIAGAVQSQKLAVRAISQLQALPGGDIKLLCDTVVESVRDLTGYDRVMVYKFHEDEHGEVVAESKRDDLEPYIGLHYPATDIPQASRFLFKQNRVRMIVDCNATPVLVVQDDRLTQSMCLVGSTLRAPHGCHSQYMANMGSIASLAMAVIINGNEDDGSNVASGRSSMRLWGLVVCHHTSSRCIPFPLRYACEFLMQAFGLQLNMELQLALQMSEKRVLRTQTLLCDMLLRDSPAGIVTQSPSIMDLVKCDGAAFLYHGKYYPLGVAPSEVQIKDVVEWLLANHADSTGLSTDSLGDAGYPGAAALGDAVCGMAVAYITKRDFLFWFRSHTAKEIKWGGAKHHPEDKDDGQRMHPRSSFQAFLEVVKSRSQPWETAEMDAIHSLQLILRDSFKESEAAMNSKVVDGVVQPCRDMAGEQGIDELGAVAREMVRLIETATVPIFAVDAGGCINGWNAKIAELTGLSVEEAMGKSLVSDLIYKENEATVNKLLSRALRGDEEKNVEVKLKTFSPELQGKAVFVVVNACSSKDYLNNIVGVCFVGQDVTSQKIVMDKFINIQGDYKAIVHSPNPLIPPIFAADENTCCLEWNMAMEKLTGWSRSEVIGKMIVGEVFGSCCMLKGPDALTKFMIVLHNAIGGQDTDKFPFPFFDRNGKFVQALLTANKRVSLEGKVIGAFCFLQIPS

[5] = molecular target: T5, PhyB 100–624 (NTE truncation) (Arabidopsis thaliana, UniProt P14713); assay: as above; assay type: binding; conditions: covalent; GAF domain cysteine; 25 °C, pH 7.9
T5 construct: PSM residues 100-624; N-terminal 6His-TEV tag cut off; E. coli BL21(DE3)

[6] = molecular target: T6, PhyB 90–624 (NTE truncation) (Arabidopsis thaliana, UniProt P14713); assay: as above; assay type: binding; conditions: covalent; GAF domain cysteine; 25 °C, pH 7.9
T6 construct: PSM residues 90-624; N-terminal 6His-TEV tag cut off; E. coli BL21(DE3); 4OUR is an earlier structure of this fragment

[7] = molecular target: T7, PhyB 51–624 (NTE truncation) (Arabidopsis thaliana, UniProt P14713); assay: as above; assay type: binding; conditions: covalent; GAF domain cysteine; 25 °C, pH 7.9
T7 construct: PSM residues 51-624; N-terminal 6His-TEV tag cut off; E. coli BL21(DE3)

[8] = molecular target: the molecule itself; assay: SEC; Superdex 200 HR 10/30, 10 °C, 150 mM KCl, 50 mM HEPES-NaOH pH 7.8, 0.3 mM TCEP; samples as Pr at 0.6 mg/ml; apparent mass from size standards; monomer to dimer

## C/C=C1/C(=C/c2[nH]c(/C=C3N=C(/C=C4\NC(=O)C(CC)=C4C)C(C)=C\3CCC(=O)O)c(CCC(=O)O)c2C)NC(=O)[C@@H]1C [PCB]
[1]
  assembly in E. coli, zinc-induced fluorescence after SDS-PAGE, UV-Vis absorption: the fragment assembled with PCB generated as least some of a ‘Pfr’-like state
[2]
  assembly in E. coli, zinc-induced fluorescence after SDS-PAGE, UV-Vis absorption: recombinant PhyB assembled with PCB with efficiencies equal to that seen for PΦB

## C=CC1=C(C)/C(=C/C2=NC(=C\c3[nH]c(/C=C4\NC(=O)[C@H](C)\C4=C/C)c(C)c3CCC(=O)O)/C(CCC(=O)O)=C2C)NC1=O [PΦB]
[3]
  assembly in E. coli, zinc-induced fluorescence after SDS-PAGE, UV-Vis absorption: The truncations were expressed and assembled with PΦB in Escherichia coli
[4]
  assembly in E. coli, zinc-induced fluorescence after SDS-PAGE, UV-Vis absorption: The truncations were expressed and assembled with PΦB in Escherichia coli
[1]
  assembly in E. coli, zinc-induced fluorescence after SDS-PAGE, UV-Vis absorption: The truncations were expressed and assembled with PΦB in Escherichia coli
[5]
  assembly in E. coli, zinc-induced fluorescence after SDS-PAGE, UV-Vis absorption: all of the truncations expressed well, efficiently assembled with PΦB, and displayed normal Pr absorption
[6]
  assembly in E. coli, zinc-induced fluorescence after SDS-PAGE, UV-Vis absorption: all of the truncations expressed well, efficiently assembled with PΦB, and displayed normal Pr absorption
[7]
  assembly in E. coli, zinc-induced fluorescence after SDS-PAGE, UV-Vis absorption: all of the truncations expressed well, efficiently assembled with PΦB, and displayed normal Pr absorption
[2]
  assembly in E. coli, zinc-induced fluorescence after SDS-PAGE, UV-Vis absorption: purified chromoproteins were readily obtained with high bilin occupancy and near normal Pr absorption

B1: full-length Arabidopsis thaliana PhyB assembled with PΦB (natural protein, UniProt P14713 1-1172, looked up)
chain: T2 sequence (P14713 1-1172)
modifications: phytochromobilin (PΦB) covalently bound to the cysteine of the GAF domain
notes: Phytochrome B (PhyB), Arabidopsis thaliana, full-length 1172-residue polypeptide, from an intron-less PhyB gene designed for recombinant expression; Analysed as Pr; TEV cleavage of the printed tag probably leaves its last G at the N-terminus (surmised); also called FL PhyB; FL
[8]
  stoichiometry N: 2
